# Data: patent US6958142B2, “Nasal spray formulation and method” (Balance Pharmaceuticals, Inc., priority 2002, dated 2005)
# Several values for one entry are separate records, joined by “and”; a condition that tells them apart may be missing. Equal values may be shown once. Read-outs that look alike come from different tables or passages of the source.
# Columns and labels:
# [1] = test system: premenopausal females with uterine fibroids; assay: Example 8: reduction of bleeding into the normal range; format: in vivo, human; conditions: deslorelin 1 mg/day intranasal
# Method: (§1) Premenopausal females (n=265) with uterine fibroids were recruited for participation in a 12 month double blind study. The women were randomly assigned to treatment in one of the following five study arms: Deslorelin at a daily dose of 1 mg was administered intranasally using a conventional metered spray delivery device. The intranasal preparation was a 100 μL daily nasal spray containing 1.0 mg deslorelin. […] Women with uterine fibroids often experience very heavy bleeding (menorrhagia) and uterine enlargement leading to pelvic pain and pressure symptoms. Clinical benefit was assessed by measuring changes in bleeding score (percent of subjects with reduction of bleeding into the normal range) and uterine volume. Shown in Table 9A are the percent of subjects responding (reduction of bleeding into the normal range) after 3 and 6 months of treatment.
# [2] = test system: heavy bleeding secondary to uterine leiomyomata; assay: Example 3: bleeding score from daily bleeding calendars; format: in vivo, human
# Method: (§2) The compound was administered using a commercially available nasal sprayer that delivered a 50 μL spray volume. The daily dose was administered by application of 50 μL to each nostril once per day, for a total daily volume of 100 μL. During the 12 week treatment period the patients kept daily bleeding calendars and underwent clinical assessments at scheduled intervals.
# (§3) A 12 week study was performed to establish an effective dose of deslorelin for controlling heavy bleeding secondary to uterine leiomyomata. Forty-one premenopausal women completed the study and are identified as Subject Nos. 1 through 41. The women were divided into test groups for treatment with intranasal deslorelin as follows:
# (§4) For one complete menstrual cycle prior to treatment, each woman completed a daily bleeding calendar. Eligible subjects were then treated with deslorelin at the assigned dosage once per day by intranasal application. During the 12 weeks of daily intranasal administration, each woman kept a daily bleeding calendar, completed quality of life questionnaires, and underwent clinical assessment and laboratory testing.
# [3] = test system: premenopausal women with uterine leiomyomata; assay: Example 3: uterine size (uterine volume from ultrasound); format: in vivo, human
# Method: as §2, §3, §4
# [4] = test system: bone mineral density of the lumbar spine; conditions: in vivo
# From the text: Bone mineral density (BMD) of the lumbar spine was obtained by dual-energy X-ray absorptiometry (DEXA) prior to and after six months of drug treatment.
# [5] = test system: premenopausal females with uterine fibroids; assay: Example 8: change in uterine volume; format: in vivo, human; conditions: 6 Months of treatment compared to baseline
# Method: as §1
# [6] = test system: ovarian estrogen and progesterone production; assay: Example 3: serum hormone levels
# Method: In a first study, deslorelin was administered alone to determine an appropriate dose for treatment of an exemplary benign gynecological disorder, uterine leiomyomata (fibroids). More specifically, the dose appropriate to control the heavy bleeding secondary to uterine leiomyomata was determined. […] The compound was administered using a commercially available nasal sprayer that delivered a 50 μL spray volume. The daily dose was administered by application of 50 μL to each nostril once per day, for a total daily volume of 100 μL. During the 12 week treatment period the patients kept daily bleeding calendars and underwent clinical assessments at scheduled intervals. Clinical assessments included grading of nasal irritation (Table 5A), determination of uterine size (Table 5B), and serum hormone levels (Table 5C).
# Eligible subjects were then treated with deslorelin at the assigned dosage once per day by intranasal application. During the 12 weeks of daily intranasal administration, each woman kept a daily bleeding calendar, completed quality of life questionnaires, and underwent clinical assessment and laboratory testing. […] Clinical assessments included grading of nasal irritation (Table 5A), determination of uterine size (Table 5B), and serum hormone levels (Table 5C).
# physchem = conditions: aqueous with cosolvent or surfactant or cyclodextrin, thermodynamic from solid
# [7] = Serum testosterone average concentration over 24 hours after intranasal testosterone
# Method: In another study, five women were treated with intranasal testosterone.
# [8] = at 25° C.; cited from earlier work
# [9] = Deslorelin 0.5 mg/day, Baseline
# [10] = Deslorelin 0.5 mg/day, End of Week 4
# [11] = Deslorelin 0.5 mg/day, End of Week 8
# [12] = Deslorelin 0.5 mg/day, End of Week 12
# [13] = Deslorelin 1 mg/day, End of Week 4
# [14] = Deslorelin 1 mg/day, End of Week 8
# [15] = Deslorelin 1 mg/day, End of Week 12
# [16] = Deslorelin 2 mg/day, End of Week 4
# [17] = Deslorelin 2 mg/day, End of Week 8
# [18] = Deslorelin 2 mg/day, End of Week 12
structure (smiles),measurement,setting,value
"CCNC(=O)[C@@H]1CCCN1C(=O)[C@H](CCCN=C(N)N)NC(=O)[C@H](CC(C)C)NC(=O)[C@@H](Cc1c[nH]c2ccccc12)NC(=O)[C@H](Cc1ccc(O)cc1)NC(=O)[C@H](CO)NC(=O)[C@H](Cc1c[nH]c2ccccc12)NC(=O)[C@H](Cc1cnc[nH]1)NC(=O)[C@@H]1CCC(=O)N1 [Deslorelin, (pyro)Pro-His-Trp-Ser-Tyr-DTrp-Leu-Arg-Pro-ethylamide]",% with reduction of bleeding into the normal range,[1]; 3 Months,69%
same,% with reduction of bleeding into the normal range,[1]; 6 Months,92%
same,Bleeding Score,"[2]; Deslorelin 0.5 mg/day, Baseline Score, 0 no bleeding, 5 normal flow, 10 or greater menorrhagia",10.9
same,Bleeding Score,"[2]; Deslorelin 0.5 mg/day, Weeks 1-4",6.6
same,Bleeding Score,"[2]; Deslorelin 0.5 mg/day, Weeks 5-8",3.5
same,Bleeding Score,"[2]; Deslorelin 0.5 mg/day, Weeks 9-12",2.6
same,Bleeding Score,"[2]; Deslorelin 1 mg/day, Baseline Score",10.8
same,Bleeding Score,"[2]; Deslorelin 1 mg/day, Weeks 1-4",7.8
same,Bleeding Score,"[2]; Deslorelin 1 mg/day, Weeks 5-8",0.4
same,Bleeding Score,"[2]; Deslorelin 1 mg/day, Weeks 9-12",1.7
same,Bleeding Score,"[2]; Deslorelin 2 mg/day, Baseline Score",14.1
same,Bleeding Score,"[2]; Deslorelin 2 mg/day, Weeks 1-4",6.6
same,Bleeding Score,"[2]; Deslorelin 2 mg/day, Weeks 5-8",1.2
same,Bleeding Score,"[2]; Deslorelin 2 mg/day, Weeks 9-12",0.6
same,effectiveness (in words),"[2]; all tested doses (0.5, 1.0, 2.0 mg/day)","partially or completely effective with reduction of bleeding, associated pain, and uterine size"
same,bleeding score (in words),[2]; end of the 12 week study,marked improvement in their bleeding score
same,uterine volume calculated from ultrasound determined dimensions (in words),"[3]; 0.5, 1.0, 2.0 mg/day, 12 weeks",reduction in uterine volume
same,Uterine Size Mean Difference (end of week 12 minus baseline uterine volume),[3]; Deslorelin 0.5 mg/day intranasal,−109.6 cm^3
same,Uterine Size Mean Difference (end of week 12 minus baseline uterine volume),[3]; Deslorelin 1 mg/day intranasal,−63.6 cm^3
same,Uterine Size Mean Difference (end of week 12 minus baseline uterine volume),[3]; Deslorelin 2 mg/day intranasal,−246.5 cm^3
same,Mean Ratio (BMD6 mo/BMDbaseline),[4],0.971
same,Proportion of Initial Volume (uterine volume),[5],0.675
same,Hormone Levels: Estradiol,[6]; [9],173 pg/mL
same,Hormone Levels: Progesterone,[6]; [9],641 ng/dL
same,Hormone Levels: Testosterone,[6]; [9],24 ng/dL
same,Hormone Levels: Estradiol,[6]; [10],47 pg/mL
same,Hormone Levels: Progesterone,[6]; [10],40 ng/dL
same,Hormone Levels: Testosterone,[6]; [10],19 ng/dL
same,Hormone Levels: Estradiol,[6]; [11],79 pg/mL
same,Hormone Levels: Progesterone,[6]; [11],30 ng/dL
same,Hormone Levels: Testosterone,[6]; [11],22 ng/dL
same,Hormone Levels: Estradiol,[6]; [12],66 pg/mL
same,Hormone Levels: Progesterone,[6]; [12],37 ng/dL
same,Hormone Levels: Testosterone,[6]; [12],23 ng/dL
same,Hormone Levels: Estradiol,"[6]; Deslorelin 1 mg/day, Baseline",123 pg/mL
same,Hormone Levels: Progesterone,"[6]; Deslorelin 1 mg/day, Baseline",480 ng/dL
same,Hormone Levels: Testosterone,"[6]; Deslorelin 1 mg/day, Baseline",26 ng/dL
same,Hormone Levels: Estradiol,[6]; [13],51 pg/mL
same,Hormone Levels: Progesterone,[6]; [13],12 ng/dL
same,Hormone Levels: Testosterone,[6]; [13],22 ng/dL
same,Hormone Levels: Estradiol,[6]; [14],95 pg/mL
same,Hormone Levels: Progesterone,[6]; [14],25 ng/dL
same,Hormone Levels: Testosterone,[6]; [14],20 ng/dL
same,Hormone Levels: Estradiol,[6]; [15],30 pg/mL
same,Hormone Levels: Progesterone,[6]; [15],10 ng/dL
same,Hormone Levels: Testosterone,[6]; [15],16 ng/dL
same,Hormone Levels: Estradiol,"[6]; Deslorelin 2 mg/day, Baseline",184 pg/mL
same,Hormone Levels: Progesterone,"[6]; Deslorelin 2 mg/day, Baseline",337 ng/dL
same,Hormone Levels: Testosterone,"[6]; Deslorelin 2 mg/day, Baseline",34 ng/dL
same,Hormone Levels: Estradiol,[6]; [16],14 pg/mL
same,Hormone Levels: Progesterone,[6]; [16],12 ng/dL
same,Hormone Levels: Testosterone,[6]; [16],16 ng/dL
same,Hormone Levels: Estradiol,[6]; [17],31 pg/mL
same,Hormone Levels: Progesterone,[6]; [17],14 ng/dL
same,Hormone Levels: Testosterone,[6]; [17],20 ng/dL
same,Hormone Levels: Estradiol,[6]; [18],30 pg/mL
same,Hormone Levels: Progesterone,[6]; [18],13 ng/dL
same,Hormone Levels: Testosterone,[6]; [18],20 ng/dL
"C[C@]12CC[C@H]3[C@@H](CCC4=CC(=O)CC[C@@]43C)[C@@H]1CC[C@@H]2O [Testosterone, testosterone]",solubility,"physchem; Estradiol and Testosterone solubility, both steroids together in aqueous HPβCD 10 mg/mL",0.658 mg/mL
same,solubility,"physchem; Estradiol and Testosterone solubility, both steroids together in aqueous HPβCD 40 mg/mL",2.82 mg/mL
same,solubility,"physchem; Estradiol and Testosterone solubility, both steroids together in aqueous HPβCD 70 mg/mL",5.07 mg/mL
same,solubility,"physchem; Estradiol and Testosterone solubility, both steroids together in aqueous HPβCD 100 mg/mL",7.11 mg/mL
same,solubility,"physchem; Estradiol and Testosterone solubility, both steroids together in aqueous HPβCD 130 mg/mL",10.6 mg/mL
same,solubility,"physchem; Estradiol and Testosterone solubility, both steroids together in aqueous HPβCD 160 mg/mL",13.4 mg/mL
same,solubility,"physchem; Estradiol and Testosterone solubility, both steroids together in aqueous HPβCD 190 mg/mL",15.7 mg/mL
same,solubility,"physchem; Estradiol and Testosterone solubility, both steroids together in aqueous HPβCD 250 mg/mL",20 mg/mL
same,solubility,"physchem; solubility, steroid alone in aqueous HPβCD 10 mg/mL",0.81 mg/mL
same,solubility,"physchem; solubility, steroid alone in aqueous HPβCD 40 mg/mL",2.54 mg/mL
same,solubility,"physchem; solubility, steroid alone in aqueous HPβCD 70 mg/mL",5.63 mg/mL
same,solubility,"physchem; solubility, steroid alone in aqueous HPβCD 100 mg/mL",6.82 mg/mL
same,solubility,"physchem; solubility, steroid alone in aqueous HPβCD 130 mg/mL",11.6 mg/mL
same,solubility,"physchem; solubility, steroid alone in aqueous HPβCD 160 mg/mL",13.9 mg/mL
same,solubility,"physchem; solubility, steroid alone in aqueous HPβCD 190 mg/mL",16.5 mg/mL
same,solubility,"physchem; solubility, steroid alone in aqueous HPβCD 220 mg/mL",18.6 mg/mL
same,solubility,"physchem; solubility, steroid alone in aqueous HPβCD 250 mg/mL",21.7 mg/mL
same,Molar Ratio steroid/HPβCD,"both steroids together, HPβCD 10 mg/mL",0.31
same,Molar Ratio steroid/HPβCD,"both steroids together, HPβCD 40 mg/mL",0.34
same,Molar Ratio steroid/HPβCD,"both steroids together, HPβCD 70 mg/mL",0.35
same,Molar Ratio steroid/HPβCD,"both steroids together, HPβCD 100 mg/mL",0.34
same,Molar Ratio steroid/HPβCD,"both steroids together, HPβCD 130 mg/mL",0.39
same,Molar Ratio steroid/HPβCD,"both steroids together, HPβCD 160 mg/mL",0.40
same,Molar Ratio steroid/HPβCD,"both steroids together, HPβCD 190 mg/mL",0.40
same,Molar Ratio steroid/HPβCD,"both steroids together, HPβCD 250 mg/mL",0.38
same,Molar Ratio steroid/HPβCD,"steroid alone, HPβCD 10 mg/mL",0.39
same,Molar Ratio steroid/HPβCD,"steroid alone, HPβCD 40 mg/mL",0.30
same,Molar Ratio steroid/HPβCD,"steroid alone, HPβCD 70 mg/mL",0.38
same,Molar Ratio steroid/HPβCD,"steroid alone, HPβCD 100 mg/mL",0.33
same,Molar Ratio steroid/HPβCD,"steroid alone, HPβCD 130 mg/mL",0.43
same,Molar Ratio steroid/HPβCD,"steroid alone, HPβCD 160 mg/mL",0.41
same,Molar Ratio steroid/HPβCD,"steroid alone, HPβCD 190 mg/mL",0.42
same,Molar Ratio steroid/HPβCD,"steroid alone, HPβCD 220 mg/mL",0.40
same,Molar Ratio steroid/HPβCD,"steroid alone, HPβCD 250 mg/mL",0.41
same,Testosterone average concentration over 24 hours,"[7]; intranasal 250 μg testosterone in preparation with deslorelin and estradiol, Day 1, individual subjects",26.7 ng/dL (2×) and 19.0 ng/dL and 18.8 ng/dL and 19.1 ng/dL
same,Testosterone average concentration over 24 hours,"[7]; intranasal 250 μg testosterone in preparation with deslorelin and estradiol, Day 8, individual subjects",29.9 ng/dL and 17.1 ng/dL and 16.5 ng/dL and 16.2 ng/dL and 24.1 ng/dL
same,Testosterone average concentration over 24 hours,"[7]; intranasal 250 μg testosterone, average of both observations (Day 1, Day 8) in each of the 5 subjects",21.4 ng/dL
OC[C@H]1O[C@@H]2O[C@H]3[C@H](O)[C@@H](O)[C@@H](O[C@H]4[C@H](O)[C@@H](O)[C@@H](O[C@H]5[C@H](O)[C@@H](O)[C@@H](O[C@H]6[C@H](O)[C@@H](O)[C@@H](O[C@H]7[C@H](O)[C@@H](O)[C@@H](O[C@H]8[C@H](O)[C@@H](O)[C@@H](O[C@H]9[C@H](O)[C@@H](O)[C@@H](O[C@H]%10[C@H](O)[C@@H](O)[C@@H](O[C@H]1[C@H](O)[C@H]2O)O[C@@H]%10CO)O[C@@H]9CO)O[C@@H]8CO)O[C@@H]7CO)O[C@@H]6CO)O[C@@H]5CO)O[C@@H]4CO)O[C@@H]3CO [δ-cyclodextrin],water solubility,[8],8.19 g/100 mL
